# Data published in patent publication US20210338692A1, “A 19-NOR C3,3-DISUBSTITUTED C21-N-PYRAZOLYL STEROID AND METHODS OF USE THEREOF” (SAGE THERAPEUTICS, INC., priority 2018, published 2021).
# Assays:
# [1] = test system: female subjects diagnosed with severe postpartum depression; experiment: Placebo-controlled study of Compound 1 in postpartum depression (HAM-D, MADRS, HAM-A, CGI-I); assay type: in vivo, human; details: 30 mg once a day for 15 days
# Procedure: Compound 1 was investigated for use in subjects with depression. Female subjects (18-65 years old) diagnosed with severe postpartum depression (PDD) with a HAM-D total score of greater than or equal to 26 at screening and Day 1 were used in the investigation. The subjects were dosed once per day with capsules containing 30 mg of Compound 1. The dose could be adjusted to capsules containing 20 mg of Compound 1 if the 30 mg dose was not tolerated. Subjects not dosed with Compound 1 were dosed with a placebo. In total, 78 subjects were treated with Compound 1 at 30 mg and 73 subjects were treated with placebo.
# Assuming a 2-sided test at an alpha level of 0.05, a sample size of approximately 65 evaluable subjects per treatment group provided 90% power to detect a placebo-adjusted treatment difference of approximately 4 points in the primary endpoint, change from baseline in HAM-D total score at Day 15 assuming standard deviation (SD) of 7 points. The change from baseline in the HAM-D total score was analyzed using a mixed effects model for repeated measures (MMRM). The model included the change from baseline at each visit as the dependent variable. The main comparison was (difference in least mean square [LSMEAN]) between Compound 1 Capsules and placebo at the 15-day timepoint. […]
# [2] = test system: synaptic and extrasynaptic GABAA receptors; details: cited from earlier work
# subjects with MDD = experiment: Earlier clinical studies of Compound 1 in subjects with MDD (Phase 2 study, previous clinical trials)
structure (smiles),measurement,setting,value
C[C@@]1(O)CC[C@H]2[C@H](CC[C@@H]3[C@@H]2CC[C@]2(C)[C@@H](C(=O)Cn4cc(C#N)cn4)CC[C@@H]32)C1 [Compound 1],overall efficacy in postpartum depression compared to placebo,[1],effective at treating postpartum depression
same,mode of action at GABAA receptors,[2],positive allosteric modulator of GABAA receptors
same,efficacy and tolerability of the dose level,"subjects with MDD; 30 mg per day, Phase 2 study in subjects with MDD",efficacious and well-tolerated
same,subjects with HAM-D score of 16 to 21 among those achieving remission or response at Day 15,subjects with MDD; Day 42,18.2%
same,subjects with HAM-D≥22 among those achieving remission or response at Day 15,subjects with MDD; Day 42,6.1%
same,adverse effect when administered in the morning,"subjects with MDD; previous clinical trials, administered in the morning",sedation/somnolence observed
same,tolerability when given in the evening,"subjects with MDD; previous clinical trials, given in the evening",improved tolerability
